{
  "source": "patent US6312728A",
  "about": "“Sustained release pharmaceutical preparation” (Cascade Development, Inc., priority 1999, dated 2001)",
  "origin": "cited, not measured here",
  "key": {"[1]": {"details": "in vivo"}, "[2]": {"details": "intravenous administration"}, "[3]": {"details": "patients"}},
  "note": "Like-named read-outs stand apart in the source and are kept apart here.",
  "data": [
    {"compound": "O=C1NC(=O)C(c2ccccc2)(c2ccccc2)N1", "note": "[phenytoin sodium]", "values": [
      {"measurement": "solubility in water", "value": "much more soluble"}
    ]},
    {"compound": "O=C1NC(=O)C(c2ccccc2)(c2ccccc2)N1", "note": "[phenytoin, 5,5-diphenyl-2,4-imidazolidinedione]", "values": [
      {"measurement": "solubility in water", "value": "poor solubility in water"},
      {"measurement": "solubility in water", "setting": "listed as free-phenytoin", "value": "practically insoluble in water"},
      {"measurement": "half-life", "setting": "[1]", "value": "> 6", "unit": "h"},
      {"measurement": "serious adverse effects", "setting": "[2]", "value": "serious adverse effects, including cardiac arrhythmias and hypotensioni"},
      {"measurement": "bioavailability following oral administration", "setting": "[3]", "value": "great variations in bioavailability"}
    ]}
  ]
}
